Measurements reported in US7109243B2 (IRM LLC, priority 2003, dated 2006).

Assays:
Cathepsin K = biological target: T1, Cathepsin K (Homo sapiens, UniProt P43235); assay: Cathepsin K inhibition assay (fluorogenic peptide substrate); selectivity ratio vs cathepsin S; format: biochemical; conditions: ratio of cathepsin K inhibition constant to cathepsin S inhibition constant; Table II
T1 sequence (P43235 115-329): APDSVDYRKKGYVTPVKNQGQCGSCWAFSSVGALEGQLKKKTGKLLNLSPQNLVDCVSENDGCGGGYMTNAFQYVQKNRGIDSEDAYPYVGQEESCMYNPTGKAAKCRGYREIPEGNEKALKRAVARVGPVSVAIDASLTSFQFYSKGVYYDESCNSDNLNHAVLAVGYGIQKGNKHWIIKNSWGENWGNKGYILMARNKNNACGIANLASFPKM
Summary of the method: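 Inhibition constants for competitive inhibitors come from apparent values fitted to enzyme progress curves. Substrate, acetyl-Lys-His-Pro-Lys-aminocarbamoylcoumarin (40 μM final), starts the reaction; fluorescence rise read at 380 nm excitation, 450 nm emission. Selectivity ratio: other cathepsin constant over cathepsin S constant.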

Cathepsin S = Cathepsin S (Homo sapiens, UniProt P25774); assay: Cathepsin S inhibition assay (fluorogenic peptide substrate); format: biochemical; conditions: Table II, compounds of Formula I; read-out: Ki Cat. S
Chain of Cathepsin S (P25774 115-331, species assumed): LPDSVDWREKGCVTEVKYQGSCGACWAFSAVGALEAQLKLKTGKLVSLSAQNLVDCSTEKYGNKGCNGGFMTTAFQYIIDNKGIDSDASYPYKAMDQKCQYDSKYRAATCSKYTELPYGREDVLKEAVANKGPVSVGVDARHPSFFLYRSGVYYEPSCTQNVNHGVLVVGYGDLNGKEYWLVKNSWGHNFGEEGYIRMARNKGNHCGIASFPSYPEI
Summary of the method: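 Ki values come from nonlinear fitting of inhibited hydrolysis rates, taking free and total inhibitor concentrations as equal. Rates measured as rising fluorescence at 380/450 nm after reaction start with 50 μM final acetyl-HPVK-aminocarbamoylcoumarin.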

Row | Structure (SMILES) | Selectivity for Cat. S over Cat. K (Cathepsin K) | Ki (Cathepsin S)
1 | O=C(N[C@@H](CC1CCCCC1)C(=O)NCCNc1ccc(OC(F)(F)F)cc1)c1ccc(Cn2cnc3ccccc32)cc1 [Compound 43, 4-Benzoimidazol-1-ylmethyl-N-{2-cyclohexyl-1-(S)-[2-(4-trifluoromethoxy-phenylamino)-ethylcarbamoyl]-ethyl}-benzamide] | + (+, >10) | < 100 nM
2 | COc1ccc(NCCNC(=O)[C@H](Cc2ccc(-c3cccc([N+](=O)[O-])c3)cc2)NC(=O)c2cccc(C)c2)cc1 [Compound 271, (S)-N-[1-[2-(4-Methoxy-phenylamino)-ethylcarbamoyl]-2-(3′-nitro-biphenyl-4-yl)-ethyl]-3-methyl-benzamide] | ++ (++, >100) | < 1000 nM
3 | COc1ccc(NCCNC(=O)[C@H](CC2CCCCC2)NC(=O)c2ccc(-c3ccc(Cl)cc3)cc2)cc1 [Compound 170, (S)-4′-Chloro-biphenyl-4-carboxylic acid {2-cyclohexyl-1-[2-(4-methoxy-phenylamino)-ethylcarbamoyl]-ethyl}-amide] | + (+, >10) | < 10000 nM
4 | COc1ccc(NCCNC(=O)C(NC(=O)c2cccc(C)c2)c2ccc(OCc3ccccc3)cc2)cc1 (stereo not drawn) [Compound 217, N-{(4-Benzyloxy-phenyl)-[2-(4-methoxy-phenylamino)-ethylcarbamoyl]-methyl}-3-methyl-benzamide] | +++ (+++, >1000) | < 1000 nM
5 | COc1ccc(NCCNC(=O)C(NC(=O)c2cccc(C)c2)c2ccccc2C)cc1 (stereo not drawn) [Compound 220, N-{[2-(4-Methoxy-phenylamino)-ethylcarbamoyl]-o-tolyl-methyl}-3-methyl-benzamide] | ++ (++, >100) | < 1000 nM
6 | COc1ccc(NCCNC(=O)[C@H](CC2CCCCC2)NC(=O)c2ccc(-c3cccc(OC)c3)cc2)cc1 [Compound 172, (S)-3′-Methoxy-biphenyl-4-carboxylic acid {2-cyclohexyl-1-[2-(4methoxy-phenylamino)-ethylcarbamoyl]-ethyl}-amide] | +++ (+++, >1000) | < 100 nM
7 | O=C(N[C@@H](CC1CCCCC1)C(=O)NCCNc1ccc(F)cc1)c1ccc(-c2cccc(C(F)(F)F)c2)o1 [Compound 85, 5-(3-Trifluoromethyl-phenyl)-furan-2-carboxylic acid (S)-{2-cyclohexyl-1-[2-(4-fluoro-phenylamino)-ethylcarbamoyl]-ethyl}-amide] | ++ (++, >100) | < 100 nM
8 | COc1ccc(NCCNC(=O)[C@H](CC2CCCCC2)NC(=O)c2cccc(Cl)c2)cc1 [Compound 118, (S)-3-Chloro-N-{2-cyclohexyl-1-[2-(4-methoxy-phenylamino)-ethylcarbamoyl]-ethyl}-benzamide] | ++ (++, >100) | < 100 nM
9 | COc1ccc(NCCNC(=O)[C@H](CC2CCCCC2)NC(=O)c2cccc(CN)c2)cc1 [Compound 199, (S)-3-Aminomethyl-N-{2-cyclohexyl-1-[2-(4-methoxy-phenylamino)-ethylcarbamoyl]-ethyl}-benzamide] | ++ (++, >100) | < 1000 nM
10 | COc1ccc(NCCNC(=O)[C@H](CC2CCCCC2)NC(=O)c2cccc(F)c2C)cc1 [Compound 147, (S)-N-{2-Cyclohexyl-1-[2-(4-methoxy-phenylamino)-ethylcarbamoyl]-ethyl}-3-fluoro-2-methyl-benzamide] | +++ (+++, >1000) | < 100 nM
11 | COc1ccc(NCCNC(=O)[C@H](CC2CCCCC2)NC(=O)c2ccc3ncsc3c2)cc1 [Compound 186, (S)-Benzothiazole-6-carboxylic acid {2-cyclohexyl-1-[2-(4-methoxy-phenylamino)-ethylcarbamoyl]-ethyl}-amide] | ++ (++, >100) | < 100 nM
12 | CC[C@H](C(=O)N[C@@H](CC1CCCCC1)C(=O)NCCNc1ccc(OC)cc1)c1ccccc1 [Compound 164, N-{2-Cyclohexyl-1-(S)-[2-(4-methoxy-phenylamino)-ethylcarbamoyl]-ethyl}-2-(S)-phenyl-butyramide] | +++ (+++, >1000) | < 100 nM
13 | COc1ccc(NCCNC(=O)[C@H](CC2CCCCC2)NC(=O)c2cc(-c3ccc(Cl)cc3)cs2)cc1 [Compound 189, (S)-4-(4-Chloro-phenyl)-thiophene-2-carboxylic acid {2-cyclohexyl-1-[2-(4-methoxy-phenylamino)-ethylcarbamoyl]-ethyl}-amide] | ++ (++, >100) | < 100 nM
14 | Cc1nc(N)sc1C(=O)N[C@@H](CC1CCCCC1)C(=O)NCCNc1ccc(OC(F)(F)F)cc1 [Compound 250, 2-Amino-4-methyl-thiazole-5-carboxylic acid (S)-{2-cyclohexyl-1-[2-(4-trifluoromethoxy-phenylamino)-ethylcarbamoyl]-ethyl}-amide] | ++ (++, >100) | < 100 nM
15 | Cc1nc(-c2ccc(C(=O)N[C@@H](CC3CCCCC3)C(=O)NCCNc3ccc(OC(F)(F)F)cc3)cc2)no1 [Compound 28] | + (+, >10) | < 1000 nM
16 | COc1ccc(NCCNC(=O)[C@H](CCC2CCCCC2)NC(=O)c2cccc(-c3csc(C)n3)c2)cc1 [Compound 142, (S)-N-{3-Cyclohexyl-1-[2-(4-methoxy-phenylamino)-ethylcarbamoyl]-propyl}-3-(2-methyl-thiazol-4-yl)-benzamide] | +++ (+++, >1000) | < 100 nM
17 | COc1ccc(NCCNC(=O)[C@H](CC2CCCCC2)NC(=O)c2ccc(F)c(C(F)(F)F)c2)cc1 [Compound 149, (S)-N-{2-Cyclohexyl-1-[2-(4-methoxy-phenylamino)-ethylcarbamoyl]-ethyl}-4-fluoro-3-trifluoromethyl-benzamide] | +++ (+++, >1000) | < 100 nM
18 | COc1ccc(NCCNC(=O)[C@H](CC2CCCCC2)NC(=O)c2cccc(C#N)c2)cc1 [Compound 120, (S)-3-Cyano-N-{2-cyclohexyl-1-[2-(4-methoxy-phenylamino)-ethylcarbamoyl]-ethyl}-benzamide] | ++ (++, >100) | < 100 nM
19 | O=C(Cc1c[nH]c2ccccc12)NC(CC1CCCCC1)C(=O)NCCNc1ccc(F)cc1 (stereo not drawn) [Compound 83, 3-Cyclohexyl-N-[2-(4-fluoro-phenylamino)-ethyl]-2-(2-1H-indol-3-yl-acetylamino)-propionamide] | ++ (++, >100) | < 100 nM
20 | COc1ccc(NCCNC(=O)[C@H](Cc2ccccc2C(F)(F)F)NC(=O)c2cccc(C)c2)cc1 [Compound 239, (S)-N-[1-[2-(4-Methoxy-phenylamino)-ethylcarbamoyl]-2-(2-trifluoromethyl-phenyl)-ethyl]-3-methyl-benzamide] | +++ (+++, >1000) | < 100 nM
21 | COc1ccc(NCCNC(=O)[C@H](CC2CCCCC2)NC(=O)c2cc(C(F)(F)F)ccc2F)cc1 [Compound 154, (S)-N-{2-Cyclohexyl-1-[2-(4-methoxy-phenylamino)-ethylcarbamoyl]-ethyl}-2-fluoro-5-trifluoromethyl-benzamide] | ++ (++, >100) | < 100 nM
22 | O=C(N[C@@H](CC1CCCCC1)C(=O)NCCNc1ccc(F)cc1)c1cscn1 [Compound 314, Thiazole-4-carboxylic acid (S)-{2-cyclohexyl-1-[2-(4-fluoro-phenylamino)-ethylcarbamoyl]-ethyl}-amide] | + (+, >10) | < 100 nM
23 | O=C(N[C@@H](CC1CCCCC1)C(=O)NCCNc1ccc(OC(F)(F)F)cc1)c1onc2ccccc12 [Compound 59, Benzo[c]isoxazole-3-carboxylic acid (S)-{2-cyclohexyl-1-[2-(4-trifluoromethoxy-phenylamino)-ethylcarbamoyl]-ethyl}-amide] | ++ (++, >100) | < 1000 nM
24 | COc1ccc(NCCNC(=O)[C@@H](NC(=O)c2cccc(C)c2)C(C)OCc2ccccc2)cc1 (stereo partly drawn) [Compound 259, (S)-N-{2-Benzyloxy-1-[2-(4-methoxy-phenylamino)-ethylcarbamoyl]-propyl}-3-methyl-benzamide] | ++ (++, >100) | < 1000 nM
25 | COc1ccc(NCCNC(=O)[C@H](Cc2ccccc2)NC(=O)c2cccc(C#N)c2)cc1 [Compound 55, (S)-3-Cyano-N-{1-[2-(4-methoxy-phenylamino)-ethylcarbamoyl]-2-phenyl-ethyl}-benzamide] | ++ (++, >100) | < 1000 nM
26 | O=C(N[C@@H](CC1CCCCC1)C(=O)NCCNc1ccc(OC(F)(F)F)cc1)c1ccc(-c2ccccc2)cc1 [Compound 234, (S)-Biphenyl-4-carboxylic acid {2-cyclohexyl-1-[2-(4-trifluoromethoxy-phenylamino)-ethylcarbamoyl]-ethyl}-amide] | + (+, >10) | < 100 nM
27 | COc1ccc(NCCNC(=O)[C@H](CC2CCCCC2)NC(=O)c2nc(C)oc2C(F)(F)F)cc1 [Compound 190, (S)-2-Methyl-5-trifluoromethyl-oxazole-4-carboxylic acid {2-cyclohexyl-1-[2-(4-methoxy-phenylamino)-ethylcarbamoyl]-ethyl}-amide] | +++ (+++, >1000) | < 100 nM
